Key:
[1] = Embryotoxic and teratogenic effects in rats; assay type: in vivo, white rats; conditions: up to 10,000 mg/kg perorally, any day of pregnancy
[2] = Efficiency in extrasystolic arrhythmia in patients, intravenous; assay type: in vivo; conditions: 1 ml of a 40% solution intravenous; 7 patients
Method: (§1) The antianginal and antiarrhythmic effects of the preparation according to the present invention were evaluated with the use of the injection pharmaceutical form of the preparation administered intravenously in an amount of 0.2 to 0.4 g based on the active ingredient.
The preparation efficiency in the case of extrasystolic arrhythmia was studied on 7 patients.
The intravenous administration of the preparation (1 ml of a 40% solution) arrested the rhythm disorder for 5-20 minutes.

[3] = Storage stability of pharmaceutical preparations; assay type: physicochemical
[4] = Coronary circulation and hemodynamics in narcotized cats; assay type: in vivo
Method: In acute experiments on narcotized cats with a mass of from 2.9 to 4.1 kg under artificial respiration, arterial pressure was recorded in the common carotide artery, central venous pressure in the right auricle, volume rate of blood flow in the ascending aortic arch and volume rate of the coronary blood flow. At the same time, there was recorded the content of oxyhemoglobin in venous coronary blood.

fruit flies = test: Mutagenous activity on fruit flies; assay type: in vivo; conditions: dihydrate
salmoneallae = test: Mutagenous activity on salmonellae; conditions: dihydrate
[5] = Antianginal effect in patients, intravenous; assay type: in vivo; conditions: 0.2 to 0.4 g intravenous
Method: as §1

in vivo = assay type: in vivo
[6] = Variation of arrhythmogenic and lethal doses of CaCl2 in mice; assay type: in vivo, white mice
Method: Thus, the effect of the preparation according to the present invention has been studied relative to the variation of arrhythmogenic and lethal doses of calcium chloride. An experiment was carried out on white mice of both sexes weighing 19-28 g which were narcotized by urethane and an ECG was remetered in transthoracic lead. A 2% solution of calcium chloride was administered to the test animals into the tail vein at a constant rate (0.1 ml for 15 seconds). The average dose of calcium chloride causing the appearance of arrhythmia and heart arrest was determined. In the test groups, the studied compounds were administered 45, 60, 120, 180 and 240 minutes before the beginning of administration of calcium chloride (Table 1).
Variation of arrthythmogenic and lethal doses of CaCl2
with time after administration of the studied
pharmaceutical compositions in experiments on mice.

[7] = Therapeutic effect on Strophanthin G arrhythmia in rabbits; assay type: in vivo
Method: To investigate the therapeutic effect of the preparation according to the present invention relative to the Strophanthin arrhythmia, another series of experiments was carried out. Strophanthin was intravenously administered to rabbits of both sexes with a mass of 3.0 to 3.8 kg at a general dose of 80 μg/kg which caused arrhythmia within 40-60 minutes. The test preparation was intravenously administered at the background of arrhythmia in the test group.
After the administration of the preparation at a dose of 5 mg/kg the regular synusal rhythm was retained for 12±5 minutes on the average, whereafter arrhythmia was gradually renewed, but it could be again eliminated by a repeated administration of the preparation at a dose of 2-5 mg/kg. In such cases the sinusal rhythm was retained for 15 to 30 minutes and in the majority of tests arrhythmia never renewed. Furthermore, an experiment was carried out on narcotized guinea pigs with a mass of 600-710 g to which Strophanthin -K was administered into the femoral vein at a total dose of 500 μg/kg.

[8] = Clinical tests on patients with various kinds of pathology; conditions: human, in vivo
From the text: The pharmaceutical preparation according to the present invention can be useful in the treatment of such diseases as heart insufficiency, valvular defects, myocarditises, cardiosclerosis, ischemic heart disease, rhythm disturbances of different genesis. […] The preparation according to the present invention has been tested in experiments on animals and in clinics on patients with various kinds of pathology.
The preparation has been studied on more than 65 patients suffering from various pathology of the cardio-vascular systems such as heart rhythm disturbances (arrhythmia) of different etiology, ischemic heart disease, stenocardia, and atherosclerosis.

[9] = Aconitine arrhythmia in rats after repeated peroral administration; assay type: in vivo, white rats
Method: The antiarrhythmic activity was studied in experiments on white rats of both sexes with a mass of 190 to 230 g narcotized by urethane. An ECG was recorded for these animals. Into the femoral vein of the rats, aconitine was introduced at a constant rate and its arrhythmogenic and lethal doses were determined along with their variation under the protective effect of the preparation according to the present invention.

[10] = Aconitine model of arrhythmia in white rats; assay type: in vivo
Method: For the comparison of preparations, as the criterion of the range of therapeutic effect, there was used the ratio of the half-lethal dose to the half-effective dose (LD50 /ED50) which was referred to as the antiarrhythmic index. […] The comparative study of the antiarrhythmic activity of pharmaceutical preparations using an acotine model of arrhythmia was effected in experiments on white rats weighing 190-240 g. The test preparations were administered intraperitoneally 10-40 minutes before administration of aconitine.

[11] = 10 mg/kg intraperitoneal, 60 minutes
[12] = 10 mg/kg intraperitoneal, 120 minutes
[13] = 10 mg/kg intraperitoneal, 180 minutes
[14] = 30 mg/kg intraperitoneal, 60 minutes
[15] = 30 mg/kg intraperitoneal, 180 minutes
[16] = 30 mg/kg intraperitoneal, 240 minutes

C[N+](C)(C)NCCC(=O)[O-] [3-(2,2,2-trimethylhydrazinium)propionate]
Embryotoxic or teratogenic effects [1]: no embryotoxic or teratogenic effects | Duration of arrest of the rhythm disorder [2]: 5 to 20 min | Stability in storage ([3]; +5° C.): stable in storage at a temperature of +5 °C for at least two years | Stability of pharmaceutical forms for peroral administration ([3]; room temperature): stable for two years at room temperature | Change of arterial pressure ([4]; 2 mg/kg): 0 + -5% | Change of central venous pressure ([4]; 2 mg/kg): 0% | Change of heart output ([4]; 2 mg/kg): 0 + +5% | Increase duration ([4]; 2 mg/kg): 20 min | Volume rate, percent of increase ([4]; 2 mg/kg): 15% | Change of central venous pressure ([4]; 10 mg/kg): -5% | Change of heart output ([4]; 10 mg/kg): +5 - 10% | Increase duration ([4]; 10 mg/kg): 45 min | Volume rate, percent of increase ([4]; 10 mg/kg): 40% | Change of arterial pressure ([4]; 25 mg/kg): -8 - +5% | Change of central venous pressure ([4]; 25 mg/kg): -10% | Change of heart output ([4]; 25 mg/kg): +10 - 20% | Increase duration ([4]; 25 mg/kg): 70 min | Volume rate, percent of increase ([4]; 25 mg/kg): 55% | Therapeutical index higher than carbocromene ([4]; 314 vs. 130): approximately 3 times | Saturation of the venous blood of coronary sinus with oxygen ([4]; in vivo): lastingly increase saturation of the venous blood of coronary sinus with oxygen | Therapeutical index ([4]; in vivo): 314 | Mutagenous activity (fruit flies): does not have mutagenous activity | Mutagenous activity (salmoneallae): does not have mutagenous activity | Stability of analgesic effect [5]: not always stable | Effect on retrosternal pains ([5]; 8 cases in 5 patients): rapidly cut short retrosternal pains | LD50 (in vivo; mouse, in vivo, ip, read-out: Acute toxicity, LD50): 7850 mg/kg | Toxicity lower than that of carbocromene (in vivo; vs carbocromene): 12 times | Arrhythmogenic dose of CaCl2 ([6]; 10 mg/kg intraperitoneal, 45 minutes before CaCl2, control 85): 91.5 mg/kg | Lethal dose of CaCl2 ([6]; 10 mg/kg intraperitoneal, 45 minutes before CaCl2, control 100.9): 101.7 mg/kg | Arrhythmogenic dose of CaCl2 [6, 11]: 103.4 mg/kg | Lethal dose of CaCl2 [6, 11]: 122.2 mg/kg | Arrhythmogenic dose of CaCl2 [6, 12]: 111.9 mg/kg | Lethal dose of CaCl2 [6, 12]: 130 mg/kg | Arrhythmogenic dose of CaCl2 [6, 13]: 110.1 mg/kg | Lethal dose of CaCl2 [6, 13]: 116 mg/kg | Arrhythmogenic dose of CaCl2 [6, 14]: 106.7 mg/kg | Lethal dose of CaCl2 [6, 14]: 122.8 mg/kg | Arrhythmogenic dose of CaCl2 [6, 15]: 117.5 mg/kg | Lethal dose of CaCl2 [6, 15]: 130.2 mg/kg | Arrhythmogenic dose of CaCl2 [6, 16]: 121.9 mg/kg | Lethal dose of CaCl2 [6, 16]: 128 mg/kg | Effect on arrhythmogenic and lethal doses of calcium chloride ([6]; single intraperitoneal administration): increases the arrhythmogenic and lethal doses of calcium chloride | Duration regular sinus rhythm was retained ([7]; 5 mg/kg, average): 12 ± 5 min | Time to arrest of ventricular tachyarrhythmia ([7]; 1 to 3 mg/kg intravenous): 1 to 2 min | Effect on ventricular tachyarrhythmia ([7]; 1 to 3 mg/kg intravenous, majority of tests): temporarily arrested ventricular tachyarrhythmia | Changes in the complex QRST ([7]; intravenous): reduced | Duration sinusal rhythm was retained after repeated administration ([7]; repeated administration, 2-5 mg/kg): 15 to 30 min | Therapeutic effects in paroxysmal tachycardia, fibrillation, A-V block and paroxysms [8]: positive, though less pronounced, effects | Therapeutic results in chronic decompensation (rheumatic valvular defects) and acute circulatory insufficiency (myocardial infarction) [8]: Especially pronounced therapeutic results | Aconitine dose variation, arrhythmogenic ([9]; 25 mg/kg perorally, 1 week): 38.7% | Aconitine dose variation, lethal ([9]; 25 mg/kg perorally, 1 week): 27.6% | Aconitine dose variation, arrhythmogenic ([9]; 25 mg/kg perorally, 2 weeks): 42.26% | Aconitine dose variation, lethal ([9]; 25 mg/kg perorally, 2 weeks): 24.7% | Aconitine dose variation, arrhythmogenic ([9]; 100 mg/kg perorally, 1 week): 55.6% | Aconitine dose variation, lethal ([9]; 100 mg/kg perorally, 1 week): 16.2% | Aconitine dose variation, arrhythmogenic ([9]; 100 mg/kg perorally, 2 weeks): 34.6% | Aconitine dose variation, lethal ([9]; 100 mg/kg perorally, 2 weeks): 9.7% | Protective effect against aconitine ([9]; peroral): pronounced protective effect | ED50 ([10]; Rattus norvegicus, ip, read-out: ED50, aconitine arrhythmia in rats): 12.5 ± 2.5 mg/kg | Antiarrhythmic index LD50/ED50, aconitine arrhythmia in rats ([10]; rat, in vivo): 354

From patent US4451485A, “Treatment of cardio-vascular diseases with 3-(2,2,2-trimethylhydrazinium) propionate dihydrate” (Institu Organicheskogo Sinteza Akademii Nauk Latviiskoi SSR, priority 1981, dated 1984)
